Results taken from patent US20080269213A1, “8-Hydroxyquinoline compounds and methods thereof” (Wyeth, priority 2006, published 2008).
“And” between values parts separate entries of the source, which are not always exact repeats. Identical values can stand only once. Like-named read-outs stand apart in the source and are kept apart here.

Assays:
[1] = molecular target: T1, recombinant human Aggrecanase-2 Agg2-Phe628 (Homo sapiens, UniProt Q9UNA0); experiment: Aggrecanase 2 in vitro enzyme assay (Agg-2 FRET, quenched fluorescent peptide substrate); format: biochemical; parameters: purified recombinant human Aggrecanase-2 Agg2-Phe628 (MW=41,737); This is a truncated form of full-length human aggrecanase-2; made in house; host or cells: CHO cells; details: for Agg-2 FRET Median PCT INHIB: concentration not given
T1 sequence (Q9UNA0 262-628 limits assumed): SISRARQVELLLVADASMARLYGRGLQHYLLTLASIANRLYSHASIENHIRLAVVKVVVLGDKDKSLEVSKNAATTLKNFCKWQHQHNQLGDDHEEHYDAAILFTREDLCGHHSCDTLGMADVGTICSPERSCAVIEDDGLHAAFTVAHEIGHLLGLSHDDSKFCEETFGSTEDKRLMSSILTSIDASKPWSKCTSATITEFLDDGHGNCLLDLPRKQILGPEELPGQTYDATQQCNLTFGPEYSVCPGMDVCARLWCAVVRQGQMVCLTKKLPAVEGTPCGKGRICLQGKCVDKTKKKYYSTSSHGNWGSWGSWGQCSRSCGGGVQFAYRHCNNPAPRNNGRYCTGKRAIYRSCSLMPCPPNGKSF
In short: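 Kinetic fluorescence (λex 340, λem 420 nm) monitored over 40 min at 30 °C after adding 25 μM final Abz/Dnp brevican-based quenched peptide. Enzyme: recombinant truncated human Agg2-Phe628 from CHO, 0.5 μg/ml final, mixed with inhibitor first; buffer HEPES pH 7.5 with NaCl, CaCl2, CHAPS, glycerol; compounds in duplicate.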

Agg-1 = molecular target: T2, Agg-1 (Homo sapiens, UniProt O75173); experiment: Agg-1 FRET assay; format: biochemical; details: for IC50: read-out: Agg1 IC50; for inhibition at 0.8 µM: @ 800 nM; for inhibition at […]: @ 2500 nM
T2 sequence (O75173 213-837): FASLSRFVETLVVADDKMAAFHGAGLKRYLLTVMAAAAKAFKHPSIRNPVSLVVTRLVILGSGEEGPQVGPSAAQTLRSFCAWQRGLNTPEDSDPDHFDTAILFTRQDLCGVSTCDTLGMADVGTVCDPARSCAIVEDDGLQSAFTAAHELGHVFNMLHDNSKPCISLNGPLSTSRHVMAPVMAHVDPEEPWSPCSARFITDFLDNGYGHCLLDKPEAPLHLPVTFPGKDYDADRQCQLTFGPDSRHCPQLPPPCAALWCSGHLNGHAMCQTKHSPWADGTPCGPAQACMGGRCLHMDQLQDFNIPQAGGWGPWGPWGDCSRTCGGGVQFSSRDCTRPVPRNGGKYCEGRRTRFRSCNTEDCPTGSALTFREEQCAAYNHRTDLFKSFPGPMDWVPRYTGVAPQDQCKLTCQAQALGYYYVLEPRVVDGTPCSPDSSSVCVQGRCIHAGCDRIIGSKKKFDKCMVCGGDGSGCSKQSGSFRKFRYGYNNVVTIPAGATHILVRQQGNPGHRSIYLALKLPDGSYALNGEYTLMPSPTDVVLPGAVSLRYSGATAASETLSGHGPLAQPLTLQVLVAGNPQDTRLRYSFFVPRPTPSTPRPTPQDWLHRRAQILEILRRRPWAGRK
Excerpt: The Agg-1/Agg-2 FRET data for N-[(8-hydroxyquinolin-2-yl)(phenyl)methyl]-2-phenoxyacetamide and 2-{[(phenoxyacetyl)amino](phenyl)methyl}quinolin-8-yl phenoxyacetate is presented in Table 1.

[2] = read-out: Agg-2 FRET Median IC50

SMILES	IC50 ([1]; read-out: Agg2 IC50) [µM]	IC50 [1, 2]	IC50 (Agg-1) [µM]	other results
O=C(COc1ccccc1)NC(c1cc2n(n1)CSC2)c1cc(Cl)c2cccnc2c1O (stereo not shown) [Example 174, N-[(5-chloro-8-hydroxyquinolin-7-yl)(4H-pyrazolo[1,5-c][1,3]thiazol-2-yl)methyl]-2-phenoxyacetamide]	–	–	–	inhibition at […] ([1]; @ 1900 nM): 40%; Agg1 % (Agg-1; @ 7000-22000 nM): 42% @ 7000-22000
O=C(COc1ccccc1)NC(c1cn2c(n1)COCC2)c1cc(Cl)c2cccnc2c1O (stereo not shown) [Example 178, N-[(5-chloro-8-hydroxyquinolin-7-yl)(5,6-dihydro-8H-imidazo[2,1-c][1,4]oxazin-2-yl)methyl]-2-phenoxyacetamide]	6.2	–	> 20	–
C=CC(NC(=O)COc1ccccc1)c1cc(Cl)c2cccnc2c1O (stereo not shown) [Example 186, N-[1-(5-chloro-8-hydroxyquinolin-7-yl)prop-2-en-1-yl]-2-phenoxyacetamide]	–	–	–	inhibition at 3.7 µM ([1]; @ 3700 nM): 38%; inhibition at 0.8 µM (Agg-1; read-out: Agg1 %): 50%
Nc1cccc(C(NC(=O)COc2ccccc2)c2cc(Cl)c3cccnc3c2O)c1 (stereo not shown) [Example 202, N-[(3-aminophenyl)(5-chloro-8-hydroxyquinolin-7-yl)methyl]-2-phenoxyacetamide]	4.59	4.59 µM and 4.36 µM	> 2	–
CS(=O)(=O)Nc1cccc(C(NC(=O)COc2ccccc2)c2cc(Cl)c3cccnc3c2OS(C)(=O)=O)c1 (stereo not shown) [Example 203, 5-chloro-7-{{3-[(methylsulfonyl)amino]phenyl}[(phenoxyacetyl)amino]methyl}quinolin-8-yl methanesulfonate]	> 30	–	> 20	Agg-2 FRET Median PCT INHIB [1]: 20%
CC(=O)Nc1cccc(C(NC(=O)COc2ccccc2)c2cc(Cl)c3cccnc3c2O)c1 (stereo not shown) [Example 204, N-[[3-(acetylamino)phenyl](5-chloro-8-hydroxyquinolin-7-yl)methyl]-2-phenoxyacetamide]	3.76	3.76 µM	> 20	–
O=C(O)Cc1cccc(C(NC(=O)COc2ccccc2)c2cc(Cl)c3cccnc3c2O)c1 (stereo not shown) [Example 208, (3-{(5-chloro-8-hydroxyquinolin-7-yl)[(phenoxyacetyl)amino]methyl}phenyl)acetic acid]	4.48	4.48 µM	–	inhibition at […] (Agg-1; read-out: Agg1 %): 37%
O=C(COc1ccc(Br)cc1)NC(c1ccccc1)c1cc(Cl)c2cccnc2c1O (stereo not shown) [Example 209, 2-(4-bromophenoxy)-N-[(5-chloro-8-hydroxyquinolin-7-yl)(phenyl)methyl]acetamide]	18	–	–	inhibition at […] (Agg-1; read-out: Agg1 %): 44%
O=C(CNCc1ccccc1)NC(c1ccccc1)c1cc(Cl)c2cccnc2c1O (stereo not shown) [Example 223, N2-benzyl-N-[(5-chloro-8-hydroxyquinolin-7-yl)(phenyl)methyl]glycinamide]	3.75	3.75 µM	> 20	–
O=C(CNCc1ccccn1)NC(c1ccccc1)c1cc(Cl)c2cccnc2c1O (stereo not shown) [Example 227, N-[(5-chloro-8-hydroxyquinolin-7-yl)(phenyl)methyl]-N2-(pyridin-2-ylmethyl)glycinamide]	3.87	–	> 50	–
O=C(CNCc1cccnc1)NC(c1ccccc1)c1cc(Cl)c2cccnc2c1O (stereo not shown) [Example 228, N-[(5-chloro-8-hydroxyquinolin-7-yl)(phenyl)methyl]-N2-(pyridin-3-ylmethyl)glycinamide]	> 11	–	> 67	Agg-2 FRET Median PCT INHIB [1]: 32%

More lines, main results first:

IC50 ([1]; read-out: Agg2 IC50) [µM]	IC50 [1, 2]	IC50 (Agg-1) [µM]	SMILES	other results
2.4	–	–	O=C(COc1ccccc1)NC(c1ccc2c(c1)CCO2)c1cc(Cl)c2cccnc2c1O (stereo not shown) [Example 170, N-[(5-chloro-8-hydroxyquinolin-7-yl)(2,3-dihydro-1-benzofuran-5-yl)methyl]-2-phenoxyacetamide]	inhibition at 7.4 µM (Agg-1; @ 7400 nM, read-out: Agg1 %): 43%
1.4	–	–	CC1(C)CCc2cc(C(NC(=O)COc3ccccc3)c3cc(Cl)c4cccnc4c3O)ccc2O1 (stereo not shown) [Example 171, N-[(5-chloro-8-hydroxyquinolin-7-yl)(2,2-dimethyl-3,4-dihydro-2H-chromen-6-yl)methyl]-2-phenoxyacetamide]	inhibition at 66.7 µM (Agg-1; @ 66700 nM, read-out: Agg1 %): 55%
1.3	1.3 µM	> 20	Cn1nnc2cc(C(NC(=O)COc3ccccc3)c3cc(Cl)c4cccnc4c3O)ccc21 (stereo not shown) [Example 177, N-[(5-chloro-8-hydroxyquinolin-7-yl)(1-methyl-1H-1,2,3-benzotriazol-5-yl)methyl]-2-phenoxyacetamide]	–
~2.5	–	> 20	O=C(COc1ccccc1)NC(c1cc2n(n1)CCC2)c1cc(Cl)c2cccnc2c1O (stereo not shown) [Example 179, N-[(5-chloro-8-hydroxyquinolin-7-yl)(5,6-dihydro-4H-pyrrolo[1,2-b]pyrazol-2-yl)methyl]-2-phenoxyacetamide]	–
~2.5	–	> 67	O=C(NC(c1ccccn1)c1cc(Cl)c2cccnc2c1O)OCc1ccccc1 (stereo not shown) [Example 183, benzyl [(5-chloro-8-hydroxyquinolin-7-yl)(pyridin-2-yl)methyl]carbamate]	Agg-2 FRET Median PCT INHIB [1]: 50%
2.53	2.53 µM	–	C/C=C/C(NC(=O)COc1ccccc1)c1cc(Cl)c2cccnc2c1O (stereo not shown) [Example 187, N-[(2E)-1-(5-chloro-8-hydroxyquinolin-7-yl)but-2-en-1-yl]-2-phenoxyacetamide]	inhibition at 0.8 µM (Agg-1; read-out: Agg1 %): 40%
1.47	–	~20	O=C(CCl)Nc1cccc(C(NC(=O)COc2ccccc2)c2cc(Cl)c3cccnc3c2O)c1 (stereo not shown) [Example 205, 2-chloro-N-(3-{(5-chloro-8-hydroxyquinolin-7-yl)[(phenoxyacetyl)amino]methyl}phenyl)acetamide]	–
2.9	–	22 to 67	CN(C)CC(=O)Nc1cccc(C(NC(=O)COc2ccccc2)c2cc(Cl)c3cccnc3c2O)c1 (stereo not shown) [Example 206, N-(3-{(5-chloro-8-hydroxyquinolin-7-yl)[(phenoxyacetyl)amino]methyl}phenyl)-N2,N2-dimethylglycinamide]	–
3.5	–	22 to 67	CNCC(=O)Nc1cccc(C(NC(=O)COc2ccccc2)c2cc(Cl)c3cccnc3c2O)c1 (stereo not shown) [Example 207, N-(3-{(5-chloro-8-hydroxyquinolin-7-yl)[(phenoxyacetyl)amino]methyl}phenyl)-N-2-methylglycinamide]	–
2.4	–	22 to 67	O=C(COc1ccc(Br)cc1)NC(c1ccccc1Cl)c1cc(Cl)c2cccnc2c1O (stereo not shown) [Example 220, 2-(4-bromophenoxy)-N-[(5-chloro-8-hydroxyquinolin-7-yl)(2-chlorophenyl)methyl]acetamide]	–
1	–	7.4 to 20	O=C(COc1ccc2c(c1)OCO2)NC(c1ccccc1Cl)c1cc(Cl)c2cccnc2c1O (stereo not shown) [Example 221, 2-(1,3-benzodioxol-5-yloxy)-N-[(5-chloro-8-hydroxyquinolin-7-yl)(2-chlorophenyl)methyl]acetamide]	–
1.2 to 3.7	–	7.4 to 20	O=C(CNCc1cccc2ccccc12)NC(c1ccccc1)c1cc(Br)c2cccnc2c1O (stereo not shown) [Example 222, N-[(5-bromo-8-hydroxyquinolin-7-yl)(phenyl)methyl]-N2-(1-naphthylmethyl)glycinamide]	–
1.56	1.56 µM	17.5	O=C(CNCc1cccc2ccccc12)NC(c1ccccc1)c1cc(Cl)c2cccnc2c1O (stereo not shown) [Example 224, N-[(5-chloro-8-hydroxyquinolin-7-yl)(phenyl)methyl]-N2-(1-naphthylmethyl)glycinamide]	–
2.75	2.75 µM	> 11	O=C(CNCc1ccc2c(c1)OCO2)NC(c1ccccc1)c1cc(Cl)c2cccnc2c1O (stereo not shown) [Example 226, N^2-(1,3-benzodioxol-5-ylmethyl)-N-[(5-chloro-8-hydroxyquinolin-7-yl)(phenyl)methyl]glycinamide]	–
